Measurements as given in patent US20250360109A1, “COMPOSITIONS AND METHODS FOR TREATING DEPRESSION IN FEMALES” (priority 2022, published 2025).

Experiments:
[1] = system: adult subjects with major depressive disorder (MDD); assay: Phase 2 placebo-controlled study in MDD, Montgomery-Asberg Depression Rating Scale (MADRS) total score; type: in vivo, human; conditions: for Change from Baseline, MADRS Total at Week 1, LSM Difference (95% CI) / Change from Baseline, MADRS Total at Week 2, LSM Difference (95% CI) / Change from Baseline, MADRS Total at Week 3, LSM Difference (95% CI) / Change from Baseline, MADRS Total at Week 4, LSM Difference (95% CI): 20 mg/day vs Placebo, MMRM; for Change from Baseline, MADRS Total at Week 1, LSM Difference (95% CI) / Change from Baseline, MADRS Total at Week 2, LSM Difference (95% CI) / Change from Baseline, MADRS Total at Week 3, LSM Difference (95% CI) / Change from Baseline, MADRS Total at Week 4, LSM Difference (95% CI) / Change from Baseline, MADRS Total at Week 1, Mean (SD) / Change from Baseline, MADRS Total at Week 1, Median / Change from Baseline, MADRS Total at Week 2, Mean (SD) / Change from Baseline, MADRS Total at Week 2, Median / Change from Baseline, MADRS Total at Week 3, Mean (SD) / Change from Baseline, MADRS Total at Week 3, Median / Change from Baseline, MADRS Total at Week 4, Mean (SD) / Change from Baseline, MADRS Total at Week 4, Median / MADRS Total at Week 1, Mean (SD) / MADRS Total at Week 1, Median / MADRS Total at Week 2, Mean (SD) / MADRS Total at Week 2, Median / MADRS Total at Week 3, Mean (SD) / MADRS Total at Week 3, Median / MADRS Total at Week 4, Mean (SD) / MADRS Total at Week 4, Median: mITT; for Change from Baseline, MADRS Total at Week 1, Mean (SD) / Change from Baseline, MADRS Total at Week 1, Median / Change from Baseline, MADRS Total at Week 2, Mean (SD) / Change from Baseline, MADRS Total at Week 2, Median / Change from Baseline, MADRS Total at Week 3, Mean (SD) / Change from Baseline, MADRS Total at Week 3, Median / Change from Baseline, MADRS Total at Week 4, Mean (SD) / Change from Baseline, MADRS Total at Week 4, Median / MADRS Total at Week 1, Mean (SD) / MADRS Total at Week 1, Median / MADRS Total at Week 2, Mean (SD) / MADRS Total at Week 2, Median / MADRS Total at Week 3, Mean (SD) / MADRS Total at Week 3, Median / MADRS Total at Week 4, Mean (SD) / MADRS Total at Week 4, Median: 20 mg/day
Description: (§1) A Phase 2, multicenter, double-blind, randomized, placebo-controlled study of the safety and efficacy of SP-624 in the treatment of adult subjects with major depressive disorder (MDD) as defined by the Diagnostic and Statistical Manual of Mental Disorders, Fifth Edition (DSM-5) was carried out. Following the successful completion of a Screening Phase, subjects were randomized to one of two treatment groups in a 1:1 ratio and received Compound 1 (SP-624) or placebo over a treatment period of four weeks (Treatment Group #1: SP-624 20 mg/day; Treatment Group #2: Placebo).
(§2) Prior to initiating the 4-week treatment period, subjects completed a Screening/Baseline period of up to 28 days, during which time all screening assessments were performed, and any current depression medications discontinued. All screening assessments were completed before discontinuing any current depression medications. Subjects returned for a Baseline Visit to complete efficacy and safety assessments. During the treatment period, subjects returned to the investigative site to complete efficacy and safety assessments at the end of Weeks 1, 2, 3, and 4. After the final dose of study drug, subjects completed a follow-up period of two weeks and returned at the end of Weeks 5 and 6. Subjects may be treated with anti-depressant medications according to physician recommendations after completion of the Week 5 Visit.
(§3) Each dose of Compound 1 was supplied as two capsules, each containing 10 mg of active pharmaceutical ingredient (API). Matching placebo capsules identical in shape and color to the active capsules were used.
The primary efficacy endpoint was Change from Baseline to Week 4 in Montgomery-Asberg Depression Rating Scale (MADRS) total score.
(§4) Secondary efficacy endpoints included: • Change from Baseline to Weeks 1, 2, and 3 in MADRS total score, • Change from Baseline to Weeks 1, 2, 3, and 4 in Clinical Global Impression-Severity (CGI-S) total score, • Change from Baseline to Week 5 and change from Week 4 to Week 5 in MADRS total score and CGI-S total score, • Change from Baseline to Week 2 and Week 4 in the 17-item Hamilton Depression Rating Scale (HAM D-17) total score, • Change from Baseline to Week 2 and Week 4 in the Sheehan Disability Scale (SDS), • Change from Baseline to Week 2 and Week 4 in the Quick Inventory of Depressive Symptomology-Self Report (QIDS-SR), and • Change from Baseline to Week 2 and Week 4 in the Quality of Life Enjoyment and Satisfaction Questionnaire-Short Form (Q-LES-Q-SF).

[2] = system: adult subjects with major depressive disorder (MDD); assay: Phase 2 placebo-controlled study in MDD, Clinical Global Impression-Severity (CGI-S) total score; type: in vivo, human; conditions: Female, mITT
Description: as §1, §2, §3, §4

COC1=CC(=O)C[C@@H](C)[C@]12Oc1c(Cl)c(-c3nnc(C)o3)cc(OC)c1C2=O [SP-624, (2S,6′R)-7-Chloro-2′,4-dimethoxy-6′-methyl-6-(5-methyl-1,3,4-oxadiazol-2-yl)-3H-spiro[1-benzofuran-2,1′-cyclohex [2]ene]-3,4′-dione]
Change from Baseline, MADRS Total at Week 1, LSM Difference (95% CI) ([1]; Female): −0.9 (−2.8, 1.1) | Change from Baseline, MADRS Total at Week 2, LSM Difference (95% CI) ([1]; Female): −1.9 (−4.3, 0.5) | Change from Baseline, MADRS Total at Week 3, LSM Difference (95% CI) ([1]; Female): −3.5 (−6.2, −0.8) | Change from Baseline, MADRS Total at Week 4, LSM Difference (95% CI) ([1]; Female): −3.9 (−6.8, −1.0) | Change from Baseline, MADRS Total at Week 1, Mean (SD) ([1]; Female): −6.6 (6.19) | Change from Baseline, MADRS Total at Week 1, Median ([1]; Female): −6 | Change from Baseline, MADRS Total at Week 2, Mean (SD) ([1]; Female): −10.1 (8.20) | Change from Baseline, MADRS Total at Week 2, Median ([1]; Female): −8 | Change from Baseline, MADRS Total at Week 3, Mean (SD) ([1]; Female): −12.5 (9.74) | Change from Baseline, MADRS Total at Week 3, Median ([1]; Female): −11 | Change from Baseline, MADRS Total at Week 4, Mean (SD) ([1]; Female): −13.5 (10.40) | Change from Baseline, MADRS Total at Week 4, Median ([1]; Female): −13 | MADRS Total at Week 1, Mean (SD) ([1]; Female): 26.7 (8.10) | MADRS Total at Week 1, Median ([1]; Female): 27 | MADRS Total at Week 2, Mean (SD) ([1]; Female): 23.1 (8.76) | MADRS Total at Week 2, Median ([1]; Female): 25 | MADRS Total at Week 3, Mean (SD) ([1]; Female): 20.8 (10.11) | MADRS Total at Week 3, Median ([1]; Female): 21 | MADRS Total at Week 4, Mean (SD) ([1]; Female): 19.8 (10.75) | MADRS Total at Week 4, Median ([1]; Female): 21 | Change from Baseline, MADRS Total at Week 1, LSM Difference (95% CI) ([1]; Male): 0.7 (−2.7, 4.1) | Change from Baseline, MADRS Total at Week 2, LSM Difference (95% CI) ([1]; Male): −0.7 (−4.1, 2.8) | Change from Baseline, MADRS Total at Week 3, LSM Difference (95% CI) ([1]; Male): 2.2 (−1.3, 5.8) | Change from Baseline, MADRS Total at Week 4, LSM Difference (95% CI) ([1]; Male): 2.7 (−0.8, 6.3) | Change from Baseline, MADRS Total at Week 1, Mean (SD) ([1]; Male): −6.6 (7.04) | Change from Baseline, MADRS Total at Week 1, Median ([1]; Male): −5 | Change from Baseline, MADRS Total at Week 2, Mean (SD) ([1]; Male): −9.8 (8.94) | Change from Baseline, MADRS Total at Week 2, Median ([1]; Male): −9 | Change from Baseline, MADRS Total at Week 3, Mean (SD) ([1]; Male): −10.6 (9.28) | Change from Baseline, MADRS Total at Week 3, Median ([1]; Male): −9 | Change from Baseline, MADRS Total at Week 4, Mean (SD) ([1]; Male): −11.4 (9.44) | Change from Baseline, MADRS Total at Week 4, Median ([1]; Male): −10 | MADRS Total at Week 1, Mean (SD) ([1]; Male): 25.5 (7.31) | MADRS Total at Week 1, Median ([1]; Male): 26 | MADRS Total at Week 2, Mean (SD) ([1]; Male): 22.6 (9.35) | MADRS Total at Week 2, Median ([1]; Male): 24 | MADRS Total at Week 3, Mean (SD) ([1]; Male): 21.4 (9.60) | MADRS Total at Week 3, Median ([1]; Male): 22 | MADRS Total at Week 4, Mean (SD) ([1]; Male): 20.8 (9.61) | MADRS Total at Week 4, Median ([1]; Male): 21 | lowering the MADRS score by an average of ([1]; females, therapeutically effective): 3.9 points | effect on MADRS score ([1]; males): no effect | Change from Baseline, CGI-S Total at Week 1, LSM Difference (95% CI) ([2]; 20 mg/day vs Placebo): −0.1 (−0.3, 0.1) | Change from Baseline, CGI-S Total at Week 2, LSM Difference (95% CI) ([2]; 20 mg/day vs Placebo): −0.3 (−0.5, 0.0) | Change from Baseline, CGI-S Total at Week 3, LSM Difference (95% CI) ([2]; 20 mg/day vs Placebo): −0.4 (−0.7, −0.1) | Change from Baseline, CGI-S Total at Week 4, LSM Difference (95% CI) ([2]; 20 mg/day vs Placebo): −0.5 (−0.8, −0.1) | CGI-S Total at Week 1, Mean (SD) ([2]; 20 mg/day): 4.0 (0.89) | CGI-S Total at Week 1, Median ([2]; 20 mg/day): 4 | CGI-S Total at Week 2, Mean (SD) ([2]; 20 mg/day): 3.6 (0.97) | CGI-S Total at Week 2, Median ([2]; 20 mg/day): 4 | CGI-S Total at Week 3, Mean (SD) ([2]; 20 mg/day): 3.4 (1.15)
